Data published in patent US20020137929A1, “1 - (3-heterocyclylphenyl) isothiourea, -isourea, -guanidine and -amidine herbicidal agents” (Intellectual Property Department, BASF Aktiengesellschaft, priority 1998, published 2002).

What was measured:
GALAP (Galium) [1] = experiment: Postemergence herbicidal evaluation; assay type: in vivo, Galium aparine; settings: postemergence
Method in brief: (§1)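 Scores (0–9) reflect plant stand, vigor, malformation, size, chlorosis and general appearance relative to control, read 4 to 5 weeks after treatment and averaged where tests were repeated. Application: about 0.0156–0.500 kg/ha sprayed at 40 psi onto two-week seedlings.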

CYPIR (Rice Flatsedge) = experiment: Preemergence weed control under flooded paddy conditions; assay type: in vivo, Cyperus iria; settings: rated 3-4 weeks after treatment
Method in brief: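 First, seeds or propagules go into the top 0.5 cm of silt loam; next, water is held 1.5 to 3 cm over the soil; then compound (50/50 acetone/water) is pipetted into it at about 0.0313 to 0.500 kg/ha; finally plants are rated visually 0-9 after three to four weeks.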

AMBEL (Ragweed, Common) = experiment: Postemergence herbicidal evaluation; assay type: in vivo, Ambrosia artemisifolia; settings: postemergence
Method in brief: as §1

[2] = system: GLXMAW (Soybean, Williams); experiment: Postemergence herbicidal evaluation; assay type: in vivo, Glycine max, (L.) Merr. cv Williams; settings: postemergence
Method in brief: as §1

ZEAMX (Corn, Field) = experiment: Preemergence herbicidal evaluation; assay type: in vivo, Zea mays; settings: rated 4-5 weeks after treatment, rating scale 0-9
Method in brief: (§2)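 Each species is sown separately in potting soil over roughly an inch of soil before any emergence. The soil surface then receives an aqueous acetone spray delivering about 0.0156 to 0.500 kg/ha of compound. After four to five weeks, injury is scored from 0 to 9 relative to a control.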

[3] = system: CHEAL (Lambsquarters, Common); experiment: Postemergence herbicidal evaluation; assay type: in vivo, Chenopodium album; settings: postemergence
Method in brief: as §1

ECHCG (Barnyardgrass) = experiment: Postemergence herbicidal evaluation; assay type: in vivo, Echinochloa crus-galli; settings: postemergence
Method in brief: as §1

CASOB (Sicklepod) [4] = experiment: Postemergence herbicidal evaluation; assay type: in vivo, Cassia obtusifolia; settings: postemergence
Method in brief: as §1

ORYSAT (Rice, Tebonnet) = experiment: Postemergence herbicidal evaluation; assay type: in vivo, Oryza sativa, (L.) Tebonnet; settings: postemergence
Method in brief: as §1

GALAP (Galium) [5] = experiment: Preemergence herbicidal evaluation; assay type: in vivo, Galium aparine; settings: rated 4-5 weeks after treatment, rating scale 0-9
Method in brief: as §2

CASOB (Sicklepod) [6] = experiment: Preemergence herbicidal evaluation; assay type: in vivo, Cassia obtusifolia; settings: rated 4-5 weeks after treatment, rating scale 0-9
Method in brief: as §2

CYPSE (Flatsedge) = experiment: Preemergence weed control under flooded paddy conditions; assay type: in vivo, Cyperus serotinus; settings: rated 3-4 weeks after treatment
Method in brief: (§3)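 Seeds or propagules sown in silt loam kept flooded 1.5-3 cm; compounds in 50/50 acetone/water pipetted into flood water at about 0.0313 to 0.500 kg/ha. Greenhouse; visual 0-9 rating versus untreated control 3-4 weeks after treatment.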

SETVI (Foxtail, Green) = experiment: Postemergence herbicidal evaluation; assay type: in vivo, Setaria viridis; settings: postemergence
Method in brief: as §1

[7] = system: SAGPY (Arrowhead (Pygmaea)); experiment: Preemergence weed control under flooded paddy conditions; assay type: in vivo, Sagittaria pygmaea; settings: rated 3-4 weeks after treatment
Method in brief: as §3

COc1cc(CN2C(=O)CSC2=Nc2cc(-n3c(=O)cc(C(F)(F)F)n(C)c3=O)c(F)cc2Cl)cc(OC)c1OC [Compound 140, 3-{4-Chloro-2-fluoro-5-{[3-(3,4,5-trimethoxybenzyl)-4-oxo-2-thiazolidinylidene]amino}phenyl}-1-methyl-6-(trifluoromethyl)-2,4(1H,3H)-pyrimidinedione]
Herbicidal rating GALAP (GALAP (Galium) [1]; rate 0.0156 kg/ha): 0.0 | Herbicidal rating GALAP (GALAP (Galium) [1]; rate 0.0313 kg/ha): 0.0 | Herbicidal rating GALAP (GALAP (Galium) [1]; rate 0.0625 kg/ha): 2.0 | herbicidal effect rating, CYPIR (CYPIR (Rice Flatsedge); 0.0313 kg/ha): 4.0 | herbicidal effect rating, CYPIR (CYPIR (Rice Flatsedge); 0.0625 kg/ha): 7.0 | herbicidal effect rating, CYPIR (CYPIR (Rice Flatsedge); 0.1250 kg/ha): 9.0 | herbicidal effect rating, CYPIR (CYPIR (Rice Flatsedge); 0.2500 kg/ha): 7.0 | Herbicidal rating AMBEL (AMBEL (Ragweed, Common); rate 0.0156 kg/ha): 2.0 | Herbicidal rating AMBEL (AMBEL (Ragweed, Common); rate 0.0313 kg/ha): 2.0 | Herbicidal rating AMBEL (AMBEL (Ragweed, Common); rate 0.0625 kg/ha): 4.0 | Herbicidal rating GLXMAW ([2]; rate 0.0156 kg/ha): 3.5 | Herbicidal rating GLXMAW ([2]; rate 0.0313 kg/ha): 4.5 | Herbicidal rating GLXMAW ([2]; rate 0.0625 kg/ha): 5.5 | Preemergence herbicidal rating ZEAMX (ZEAMX (Corn, Field); rate 0.0625 kg/ha): 0.0 | Preemergence herbicidal rating ZEAMX (ZEAMX (Corn, Field); rate 0.1250 kg/ha): 0.0 | Preemergence herbicidal rating ZEAMX (ZEAMX (Corn, Field); rate 0.2500 kg/ha): 0.0 | Herbicidal rating CHEAL ([3]; rate 0.0156 kg/ha): 3.0 | Herbicidal rating CHEAL ([3]; rate 0.0625 kg/ha): 3.0 | Herbicidal rating ECHCG (ECHCG (Barnyardgrass); rate 0.0156 kg/ha): 0.0 | Herbicidal rating ECHCG (ECHCG (Barnyardgrass); rate 0.0313 kg/ha): 0.0 | Herbicidal rating ECHCG (ECHCG (Barnyardgrass); rate 0.0625 kg/ha): 0.0 | Herbicidal rating CASOB (CASOB (Sicklepod) [4]; rate 0.0156 kg/ha): 0.0 | Herbicidal rating CASOB (CASOB (Sicklepod) [4]; rate 0.0313 kg/ha): 0.0 | Herbicidal rating CASOB (CASOB (Sicklepod) [4]; rate 0.0625 kg/ha): 0.0 | Herbicidal rating ORYSAT (ORYSAT (Rice, Tebonnet); rate 0.0156 kg/ha): 0.5 | Herbicidal rating ORYSAT (ORYSAT (Rice, Tebonnet); rate 0.0313 kg/ha): 0.5 | Herbicidal rating ORYSAT (ORYSAT (Rice, Tebonnet); rate 0.0625 kg/ha): 1.5 | Preemergence herbicidal rating GALAP (GALAP (Galium) [5]; rate 0.0625 kg/ha): 0.0 | Preemergence herbicidal rating GALAP (GALAP (Galium) [5]; rate 0.1250 kg/ha): 0.0 | Preemergence herbicidal rating GALAP (GALAP (Galium) [5]; rate 0.2500 kg/ha): 0.0 | Preemergence herbicidal rating CASOB (CASOB (Sicklepod) [6]; rate 0.0625 kg/ha): 0.0 | Preemergence herbicidal rating CASOB (CASOB (Sicklepod) [6]; rate 0.1250 kg/ha): 0.0 | Preemergence herbicidal rating CASOB (CASOB (Sicklepod) [6]; rate 0.2500 kg/ha): 0.0 | herbicidal effect rating, CYPSE (CYPSE (Flatsedge); 0.0313 kg/ha): 0.0 | herbicidal effect rating, CYPSE (CYPSE (Flatsedge); 0.0625 kg/ha): 0.0 | herbicidal effect rating, CYPSE (CYPSE (Flatsedge); 0.1250 kg/ha): 0.0 | herbicidal effect rating, CYPSE (CYPSE (Flatsedge); 0.2500 kg/ha): 0.0 | Herbicidal rating SETVI (SETVI (Foxtail, Green); rate 0.0156 kg/ha): 0.0 | Herbicidal rating SETVI (SETVI (Foxtail, Green); rate 0.0313 kg/ha): 0.0 | Herbicidal rating SETVI (SETVI (Foxtail, Green); rate 0.0625 kg/ha): 0.0 | herbicidal effect rating, SAGPY ([7]; 0.0313 kg/ha): 2.0 | herbicidal effect rating, SAGPY ([7]; 0.0625 kg/ha): 3.0 | herbicidal effect rating, SAGPY ([7]; 0.1250 kg/ha): 4.0 | herbicidal effect rating, SAGPY ([7]; 0.2500 kg/ha): 4.0
